The supplement of paper PMC9663587

How the values were obtained:
Assay in all cases: GRmax, 72 h; higher = less effect;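 also: breast cell lines in 384-well plates, nine doses across a 10^4 range, Dye Drop imaging of viable cells vs DMSO and time-zero plates, GR 0 means no net growth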
HCC70 = system: HCC70
CAL851 = system: CAL851
HCC1569 = system: HCC1569
HCC1143 = system: HCC1143
MDAMB453 = system: MDAMB453
MDAMB231 = system: MDAMB231
CAL51 = system: CAL51
BT20 = system: BT20
MDAMB415 = system: MDAMB415
ZR7530 = system: ZR7530
HCC38 = system: HCC38
UACC893 = system: UACC893

Compound	GRmax, 72 h (HCC70)	GRmax, 72 h (CAL851)	GRmax, 72 h (HCC1569)	GRmax, 72 h (HCC1143)	GRmax, 72 h (MDAMB453)	GRmax, 72 h (MDAMB231)	GRmax, 72 h (CAL51)	GRmax, 72 h (BT20)	GRmax, 72 h (MDAMB415)	GRmax, 72 h (ZR7530)	GRmax, 72 h (HCC38)	GRmax, 72 h (UACC893)
COc1ccc2c(c1)[C@]1(C[C@H]1c1ccc3c(/C=C/c4ccc(CN5C[C@@H](C)O[C@@H](C)C5)cc4)n[nH]c3c1)C(=O)N2	-0.31 GR	-0.11 GR	-0.0697 GR	0.0518 GR	0.0847 GR	0.0653 GR	0.0084 GR	-0.231 GR	0.157 GR	0.174 GR	-0.403 GR	0.138 GR
COc1cccc(OCCCN)c1-c1cc(Nc2cnc(C#N)cn2)n[nH]1	-0.639 GR	0.0306 GR	-0.0272 GR	-0.117 GR	-0.513 GR	-0.172 GR	0.0443 GR	-0.2 GR	0.69 GR	0.561 GR	-0.556 GR	0.365 GR
CC(=O)Nc1cccc(-n2c(=O)n(C3CC3)c(=O)c3c(Nc4ccc(I)cc4F)n(C)c(=O)c(C)c32)c1 (max 1 µM)	-0.0393 GR	0.234 GR	0.522 GR	-0.0225 GR	0.0489 GR	-0.178 GR	0.706 GR	0.503 GR	0.285 GR	0.405 GR	0.185 GR	-0.0662 GR
CCc1cnn2c(NCc3ccc[n+]([O-])c3)cc(N3CCCC[C@H]3CCO)nc12 (max 1 µM)	-0.909 GR	-0.241 GR	-0.245 GR	-0.253 GR	-0.257 GR	-0.42 GR	-0.358 GR	-0.698 GR	-0.488 GR	-0.714 GR	-0.442 GR	-0.641 GR
CC(=O)c1c(C)c2cnc(Nc3ccc(N4CCNCC4)cn3)nc2n(C2CCCC2)c1=O (max 3.162 µM)	0.936 GR	1.08 GR	0.983 GR	0.282 GR	0.0416 GR	0.206 GR	0.361 GR	0.162 GR	0.117 GR	0.266 GR	0.147 GR	0.344 GR
CCc1cncnc1N1CCN(Cc2nc3ccc(C(F)(F)F)cc3[nH]2)CC1 (max 10 µM)	0.935 GR	1.02 GR	0.7 GR	0.739 GR	0.0482 GR	0.854 GR	0.734 GR	0.66 GR	0.431 GR	0.113 GR	0.976 GR	0.351 GR
CCCCOc1c(C(=O)c2c(F)cc(C)cc2F)c[nH]c2nncc1-2 (max 10 µM)	-0.164 GR	-0.012 GR	0.0899 GR	-0.0529 GR	0.31 GR	0.227 GR	0.28 GR	-0.105 GR	0.24 GR	0.212 GR	-0.0129 GR	0.117 GR
CCN1CCN(Cc2ccc(Nc3ncc(F)c(-c4cc(F)c5nc(C)n(C(C)C)c5c4)n3)nc2)CC1 (max 10 µM)	-0.826 GR	-0.224 GR	0.116 GR	-0.0787 GR	-0.765 GR	-0.487 GR	-0.464 GR	-0.216 GR	-0.0085 GR	0.125 GR	-0.327 GR	-0.22 GR
CNc1nc(-c2ccc3c(N)n[nH]c3c2)cc(N2C[C@@H](C(=O)NC3CCCCC3)CC[C@H]2C)n1 (max 10 µM)	0.15 GR	0.506 GR	0.673 GR	0.742 GR	0.147 GR	0.662 GR	0.794 GR	0.68 GR	0.0477 GR	0.348 GR	0.767 GR	0.144 GR
CO[C@@H](C)Cn1c(=O)n(C)c2cnc3ccc(-c4cncc(C(C)(C)O)c4)cc3c21 (max 10 µM)	-0.755 GR	-0.0445 GR	-0.0783 GR	-0.203 GR	-0.578 GR	-0.136 GR	-0.159 GR	-0.645 GR	-0.473 GR	-0.36 GR	-0.0301 GR	-0.84 GR
Cc1nn(C)c(COc2ccc(N3CCN(S(=O)(=O)N(C)C)CC3)cc2)c1-c1cccc2c(CCCOc3cccc4ccccc34)c(C(=O)O)n(CCN3CCOCC3)c12 (max 10 µM)	0.938 GR	1.01 GR	0.928 GR	0.672 GR	0.933 GR	0.957 GR	0.992 GR	0.821 GR	0.881 GR	0.576 GR	0.887 GR	0.763 GR
CN(C)CC[C@H](CSc1ccccc1)Nc1ccc(S(=O)(=O)NC(=O)c2ccc(N3CCN(Cc4ccccc4-c4ccc(Cl)cc4)CC3)cc2)cc1[N+](=O)[O-] [ABT-737] (max 10 µM)	-0.0638 GR	0.934 GR	-0.406 GR	0.376 GR	0.152 GR	-0.12 GR	0.876 GR	0.593 GR	0.352 GR	0.552 GR	-0.421 GR	0.49 GR
C=CCn1c(=O)c2cnc(Nc3ccc(N4CCN(C)CC4)cc3)nc2n1-c1cccc(C(C)(C)O)n1 [AZD1775] (max 10 µM)	-0.75 GR	-0.55 GR	-0.167 GR	-0.458 GR	-0.249 GR	-0.282 GR	-0.188 GR	-0.677 GR	-0.186 GR	-0.501 GR	-0.492 GR	-0.42 GR
CNC(=O)c1cccc(-c2ccc3c(N4CCOC[C@@H]4C)nc(N4CCOC[C@@H]4C)nc3n2)c1 [AZD2014] (max 10 µM)	0.0453 GR	0.114 GR	0.0746 GR	0.182 GR	0.134 GR	0.241 GR	0.201 GR	0.151 GR	-0.138 GR	-0.24 GR	0.195 GR	-0.164 GR
NC1(C(=O)N[C@@H](CCO)c2ccc(Cl)cc2)CCN(c2nc[nH]c3nccc2-3)CC1 [AZD5363] (max 10 µM)	-0.292 GR	0.592 GR	0.0764 GR	0.769 GR	0.23 GR	1.05 GR	0.565 GR	0.229 GR	-0.529 GR	0.187 GR	0.731 GR	-0.798 GR
